Assay results published in US20090098130A1, “GLUCAGON-LIKE PROTEIN-1 RECEPTOR (GLP-1R) AGONIST COMPOUNDS” (priority 2007, published 2009).
Non-standard residues stand in square brackets, D forms with d. Residues, ends and D or L forms follow the SMILES beside them. Aib = CC(C)(N)C(=O)O

test system: pancreatic β cells; assay: glucose-stimulated insulin secretion (GSIS) assay; assay type: cell-based; conditions: GA targeting agent-linker conjugate; GSIS assay in vitro
Protocol: Briefly, glucose and GA targeting peptide was added at various concentrations to pancreatic β cell cultures, and insulin secretion was detected by measuring insulin levels over time. EC50 was calculated for each peptide.
The ability of these GA targeting agent-linker conjugates to stimulate […] secretion in vitro was measured using the GSIS assay described in Example 27. […] Each of these peptides contained a side-chain modified Lys residue according to the scheme illustrated in FIG. 30 at a different position.

| EC50 [µM] | Structure (SMILES) |
| --- | --- |
| < 10 | CC[C@H](C)[C@H](NC(=O)[C@H](Cc1ccccc1)NC(=O)[C@H](CCC(=O)O)NC(=O)[C@H](CCCCN)NC(=O)[C@@H](NC(=O)[C@H](C)NC(=O)[C@H](CCC(N)=O)NC(=O)[C@H](CCC(=O)O)NC(=O)[C@H](CCC(=O)O)NC(=O)[C@H](CC(C)C)NC(=O)[C@H](Cc1ccc(O)cc1)NC(=O)[C@H](CO)NC(=O)[C@H](CO)NC(=O)[C@@H](NC(=O)[C@H](CC(=O)O)NC(=O)[C@H](CO)NC(=O)[C@@H](NC(=O)[C@H](Cc1ccccc1)NC(=O)[C@@H](NC(=O)CNC(=O)[C@H](CCC(=O)O)NC(=O)C(C)(C)NC(=O)[C@H](Cc1c[nH]cn1)NC(=O)Cc1cccc(N)c1)[C@@H](C)O)[C@@H](C)O)C(C)C)C(C)C)C(=O)N[C@@H](C)C(=O)N[C@@H](Cc1c[nH]c2ccccc12)C(=O)N[C@@H](CC(C)C)C(=O)N[C@H](C(=O)N[C@@H](CCCCN)C(=O)NC(C)(C)C(=O)N[C@@H](CCCNC(=N)N)C(N)=O)[C@@H](C)CC |
| < 10 | CC/C=C/CC(=O)N[C@@H](Cc1c[nH]cn1)C(=O)NC(C)(C)C(=O)N[C@@H](CCC(=O)O)C(=O)NCC(=O)N[C@H](C(=O)N[C@@H](Cc1ccccc1)C(=O)N[C@H](C(=O)N[C@@H](CO)C(=O)N[C@@H](CC(=O)O)C(=O)N[C@H](C(=O)N[C@@H](CO)C(=O)N[C@@H](CO)C(=O)N[C@@H](Cc1ccc(O)cc1)C(=O)N[C@@H](CC(C)C)C(=O)N[C@@H](CCC(=O)O)C(=O)N[C@@H](CCC(=O)O)C(=O)N[C@@H](CCC(N)=O)C(=O)N[C@@H](C)C(=O)N[C@H](C(=O)N[C@@H](CCCCN)C(=O)N[C@@H](CCC(=O)O)C(=O)N[C@@H](Cc1ccccc1)C(=O)N[C@H](C(=O)N[C@@H](C)C(=O)N[C@@H](Cc1c[nH]c2ccccc12)C(=O)N[C@@H](CC(C)C)C(=O)N[C@H](C(=O)N[C@@H](CCCCN)C(=O)NC(C)(C)C(=O)N[C@@H](CCCNC(=N)N)C(N)=O)[C@@H](C)CC)[C@@H](C)CC)C(C)C)C(C)C)[C@@H](C)O)[C@@H](C)O |

same assay, conditions: GA targeting peptide; insulin secretion from pancreatic β cell cultures in vitro with glucose

| Structure (SMILES) | EC50 [µM] |
| --- | --- |
| CC[C@H](C)[C@H](NC(=O)[C@H](Cc1ccccc1)NC(=O)[C@H](CCC(=O)O)NC(=O)[C@H](CCCCN)NC(=O)[C@H](C)NC(=O)[C@H](C)NC(=O)[C@H](CCC(N)=O)NC(=O)[C@H](CC(=O)O)NC(=O)[C@H](CCC(=O)O)NC(=O)[C@H](CC(C)C)NC(=O)[C@H](Cc1ccc(O)cc1)NC(=O)[C@H](CO)NC(=O)[C@H](CO)NC(=O)[C@@H](NC(=O)[C@H](CC(=O)O)NC(=O)[C@H](CO)NC(=O)[C@@H](NC(=O)[C@H](Cc1ccccc1)NC(=O)[C@@H](NC(=O)CNC(=O)[C@H](CCC(=O)O)NC(=O)C(C)(C)NC(=O)[C@@H](N)Cc1c[nH]cn1)[C@@H](C)O)[C@@H](C)O)C(C)C)C(=O)N[C@@H](C)C(=O)N[C@@H](Cc1c[nH]c2ccccc12)C(=O)N[C@@H](CC(C)C)C(=O)N[C@H](C(=O)N[C@@H](CCCCN)C(=O)NC(C)(C)C(=O)N[C@@H](CCCNC(=N)N)C(N)=O)C(C)C [SEQ ID NO: 46] (H-H[Aib]EGTFTSDVSSYLEDQAAKEFIAWLVK[Aib]R-NH2) | < 10 |
| CC[C@H](C)[C@H](NC(=O)[C@H](Cc1ccccc1)NC(=O)[C@H](CCC(=O)O)NC(=O)[C@H](CCCCN)NC(=O)[C@H](C)NC(=O)[C@H](C)NC(=O)[C@H](CCC(N)=O)NC(=O)CNC(=O)[C@H](CCC(=O)O)NC(=O)[C@H](CC(C)C)NC(=O)[C@H](Cc1ccc(O)cc1)NC(=O)[C@H](CO)NC(=O)[C@H](CO)NC(=O)[C@@H](NC(=O)[C@H](CC(=O)O)NC(=O)[C@H](CO)NC(=O)[C@@H](NC(=O)[C@H](Cc1ccccc1)NC(=O)[C@@H](NC(=O)CNC(=O)[C@H](CCC(=O)O)NC(=O)C(C)(C)NC(=O)[C@@H](N)Cc1c[nH]cn1)[C@@H](C)O)[C@@H](C)O)C(C)C)C(=O)N[C@@H](C)C(=O)N[C@@H](Cc1c[nH]c2ccccc12)C(=O)N[C@@H](CC(C)C)C(=O)N[C@H](C(=O)N[C@@H](CCCNC(=N)N)C(=O)NC(C)(C)C(=O)N[C@@H](CCCNC(=N)N)C(N)=O)C(C)C [SEQ ID NO: 55] | < 10 |
| CC[C@H](C)[C@H](NC(=O)[C@H](C)NC(=O)[C@H](CCC(N)=O)NC(=O)CNC(=O)[C@H](CCC(=O)O)NC(=O)[C@H](CC(C)C)NC(=O)[C@H](Cc1ccc(O)cc1)NC(=O)[C@H](CO)NC(=O)[C@H](CO)NC(=O)[C@@H](NC(=O)[C@H](CC(=O)O)NC(=O)[C@H](CO)NC(=O)[C@@H](NC(=O)[C@H](Cc1ccccc1)NC(=O)[C@@H](NC(=O)CNC(=O)[C@H](CCC(=O)O)NC(=O)C(C)(C)NC(=O)[C@@H](N)Cc1c[nH]cn1)[C@@H](C)O)[C@@H](C)O)C(C)C)C(=O)N[C@@H](CCCCN)C(=O)N[C@@H](CCC(=O)O)C(=O)N[C@@H](Cc1ccccc1)C(=O)N[C@H](C(=O)N[C@@H](C)C(=O)N[C@@H](Cc1c[nH]c2ccccc12)C(=O)N[C@@H](CC(C)C)C(=O)N[C@H](C(=O)N[C@@H](CCCCN)C(=O)NC(C)(C)C(=O)N[C@@H](CCCNC(=N)N)C(N)=O)C(C)C)[C@@H](C)CC [SEQ ID NO: 49] (H-H[Aib]EGTFTSDVSSYLEGQAIKEFIAWLVK[Aib]R-NH2) | < 10 |
| CC[C@H](C)[C@H](NC(=O)[C@H](Cc1ccccc1)NC(=O)[C@H](CCC(=O)O)NC(=O)[C@H](CCCCN)NC(=O)[C@H](C)NC(=O)[C@H](C)NC(=O)[C@H](CCC(N)=O)NC(=O)CNC(=O)[C@H](CCC(=O)O)NC(=O)[C@H](CC(C)C)NC(=O)[C@H](Cc1ccc(O)cc1)NC(=O)[C@H](CO)NC(=O)[C@H](CO)NC(=O)[C@@H](NC(=O)[C@H](CC(=O)O)NC(=O)[C@H](CO)NC(=O)[C@@H](NC(=O)[C@H](Cc1ccccc1)NC(=O)[C@@H](NC(=O)CNC(=O)[C@H](CCC(=O)O)NC(=O)C(C)(C)NC(=O)[C@@H](N)Cc1c[nH]cn1)[C@@H](C)O)[C@@H](C)O)C(C)C)C(=O)N[C@@H](C)C(=O)N[C@@H](Cc1c[nH]c2ccccc12)C(=O)N[C@@H](CC(C)C)C(=O)N[C@H](C(=O)N[C@@H](CCCCN)C(=O)NC(C)(C)C(=O)N[C@@H](CCCNC(=N)N)C(N)=O)[C@@H](C)CC [SEQ ID NO: 54] | < 10 |
| CC[C@H](C)[C@H](NC(=O)[C@H](Cc1ccccc1)NC(=O)[C@H](CCC(=O)O)NC(=O)[C@H](CCCCN)NC(=O)[C@H](C)NC(=O)[C@H](C)NC(=O)[C@H](CCC(N)=O)NC(=O)CNC(=O)[C@H](CCC(=O)O)NC(=O)[C@H](Cc1ccc(O)cc1)NC(=O)[C@H](Cc1ccc(O)cc1)NC(=O)[C@H](CO)NC(=O)[C@H](CO)NC(=O)[C@@H](NC(=O)[C@H](CC(=O)O)NC(=O)[C@H](CO)NC(=O)[C@@H](NC(=O)[C@H](Cc1ccccc1)NC(=O)[C@@H](NC(=O)CNC(=O)[C@H](CCC(=O)O)NC(=O)C(C)(C)NC(=O)[C@@H](N)Cc1c[nH]cn1)[C@@H](C)O)[C@@H](C)O)C(C)C)C(=O)N[C@@H](C)C(=O)N[C@@H](Cc1c[nH]c2ccccc12)C(=O)N[C@@H](CC(C)C)C(=O)N[C@H](C(=O)N[C@@H](CCCCN)C(=O)NC(C)(C)C(=O)N[C@@H](CCCNC(=N)N)C(N)=O)C(C)C [SEQ ID NO: 43] (H-H[Aib]EGTFTSDVSSYYEGQAAKEFIAWLVK[Aib]R-NH2) | < 10 |

The next lines start with the values.

| EC50 [µM] | Structure (SMILES) |
| --- | --- |
| < 10 | CC[C@H](C)[C@H](NC(=O)[C@H](Cc1ccccc1)NC(=O)[C@H](CCC(=O)O)NC(=O)[C@H](CCCCN)NC(=O)[C@@H](NC(=O)[C@H](C)NC(=O)[C@H](CCC(N)=O)NC(=O)[C@H](CCC(=O)O)NC(=O)[C@H](CCC(=O)O)NC(=O)[C@H](Cc1ccccc1)NC(=O)[C@H](Cc1ccc(O)cc1)NC(=O)[C@H](CO)NC(=O)[C@H](CO)NC(=O)[C@@H](NC(=O)[C@H](CC(=O)O)NC(=O)[C@H](CO)NC(=O)[C@@H](NC(=O)[C@H](Cc1ccccc1)NC(=O)[C@@H](NC(=O)CNC(=O)[C@H](CCC(=O)O)NC(=O)C(C)(C)NC(=O)[C@@H](N)Cc1c[nH]cn1)[C@@H](C)O)[C@@H](C)O)C(C)C)C(C)C)C(=O)N[C@@H](C)C(=O)N[C@@H](Cc1c[nH]c2ccccc12)C(=O)N[C@@H](CC(C)C)C(=O)N[C@H](C(=O)N[C@@H](CCCCN)C(=O)NC(C)(C)C(=O)N[C@@H](CCCNC(=N)N)C(N)=O)[C@@H](C)CC [SEQ ID NO: 58] (H-H[Aib]EGTFTSDVSSYFEEQAVKEFIAWLIK[Aib]R-NH2) |
| < 10 | CC[C@H](C)[C@H](NC(=O)[C@H](Cc1ccccc1)NC(=O)[C@H](CCC(=O)O)NC(=O)[C@H](CCCCN)NC(=O)[C@@H](NC(=O)[C@H](C)NC(=O)[C@H](CCC(N)=O)NC(=O)[C@H](CCC(=O)O)NC(=O)[C@H](CCC(=O)O)NC(=O)[C@H](Cc1c[nH]c2ccccc12)NC(=O)[C@H](Cc1ccc(O)cc1)NC(=O)[C@H](CO)NC(=O)[C@H](CO)NC(=O)[C@@H](NC(=O)[C@H](CC(=O)O)NC(=O)[C@H](CO)NC(=O)[C@@H](NC(=O)[C@H](Cc1ccccc1)NC(=O)[C@@H](NC(=O)CNC(=O)[C@H](CCC(=O)O)NC(=O)C(C)(C)NC(=O)[C@@H](N)Cc1c[nH]cn1)[C@@H](C)O)[C@@H](C)O)C(C)C)C(C)C)C(=O)N[C@@H](C)C(=O)N[C@@H](Cc1c[nH]c2ccccc12)C(=O)N[C@@H](CC(C)C)C(=O)N[C@H](C(=O)N[C@@H](CCCCN)C(=O)NC(C)(C)C(=O)N[C@@H](CCCNC(=N)N)C(N)=O)[C@@H](C)CC [SEQ ID NO: 60] (H-H[Aib]EGTFTSDVSSYWEEQAVKEFIAWLIK[Aib]R-NH2) |
| < 10 | CC[C@H](C)[C@H](NC(=O)[C@H](Cc1ccccc1)NC(=O)[C@H](CCC(=O)O)NC(=O)[C@H](CCCCN)NC(=O)[C@@H](NC(=O)[C@H](C)NC(=O)[C@H](CCC(N)=O)NC(=O)[C@H](CCC(=O)O)NC(=O)[C@H](CCC(=O)O)NC(=O)[C@H](CC(C)C)NC(=O)[C@H](Cc1ccc(O)cc1)NC(=O)[C@H](CO)NC(=O)[C@H](CO)NC(=O)[C@@H](NC(=O)[C@H](CC(=O)O)NC(=O)[C@H](CO)NC(=O)[C@@H](NC(=O)[C@H](Cc1ccccc1)NC(=O)[C@@H](NC(=O)CNC(=O)[C@H](CCC(=O)O)NC(=O)C(C)(C)NC(=O)[C@@H](N)Cc1c[nH]cn1)[C@@H](C)O)[C@@H](C)O)C(C)C)C(C)C)C(=O)N[C@@H](C)C(=O)N[C@@H](Cc1c[nH]c2ccccc12)C(=O)N[C@@H](CC(C)C)C(=O)N[C@H](C(=O)N[C@@H](CCCCN)C(=O)NC(C)(C)C(=O)N[C@@H](CCCNC(=N)N)C(N)=O)[C@@H](C)CC [SEQ ID NO: 57] |
